Drawing on BindingDB's records for patent US20250320228 (Merck Patent, 2025), this text covers IC50 for 10 compounds.

Mitogen-activated protein kinase kinase kinase kinase 1, sequence (Q92918 whole entry, the tested form may be a part): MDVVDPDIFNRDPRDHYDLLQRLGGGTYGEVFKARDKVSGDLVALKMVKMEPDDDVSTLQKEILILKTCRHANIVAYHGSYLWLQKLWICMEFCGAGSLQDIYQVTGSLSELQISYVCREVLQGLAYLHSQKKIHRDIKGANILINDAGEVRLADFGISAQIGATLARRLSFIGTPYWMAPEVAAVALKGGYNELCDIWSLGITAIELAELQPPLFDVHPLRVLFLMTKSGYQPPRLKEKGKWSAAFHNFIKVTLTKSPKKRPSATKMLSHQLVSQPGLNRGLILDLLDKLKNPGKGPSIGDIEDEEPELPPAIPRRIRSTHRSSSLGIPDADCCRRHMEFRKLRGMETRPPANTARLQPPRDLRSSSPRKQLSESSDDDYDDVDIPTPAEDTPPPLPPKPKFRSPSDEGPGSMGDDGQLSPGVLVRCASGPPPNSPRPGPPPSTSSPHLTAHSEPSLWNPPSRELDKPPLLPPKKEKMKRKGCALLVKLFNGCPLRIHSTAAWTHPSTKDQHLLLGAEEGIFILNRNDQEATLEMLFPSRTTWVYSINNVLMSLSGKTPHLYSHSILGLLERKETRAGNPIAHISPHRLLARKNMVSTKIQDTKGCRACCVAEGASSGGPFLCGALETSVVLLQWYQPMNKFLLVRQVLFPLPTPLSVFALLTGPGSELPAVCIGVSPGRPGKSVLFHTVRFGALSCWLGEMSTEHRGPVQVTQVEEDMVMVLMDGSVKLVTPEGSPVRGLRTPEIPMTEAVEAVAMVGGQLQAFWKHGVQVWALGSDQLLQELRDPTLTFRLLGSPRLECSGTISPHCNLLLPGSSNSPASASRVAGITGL

The assay concerns the target Mitogen-activated protein kinase kinase kinase kinase 1 (Homo sapiens, UniProt Q92918). The assay is described as follows: HPK1 Kinase Assay. On the procedure:
A recombinant fusion protein consisting of full-length human HPK1 (MAP4K1) with an N-terminal Glutatione S-transferase (GST) tag was produced in insect cells Sf21 using the baculovirus expression system. GST-HPK1 protein was purified from cell lysates by glutathione Sepharose affinity chromatography. The assay is run in three continuous steps: 1) the HPK1 enzymatic kinase reaction, 2) an ATP depletion, and 3) the ADP detection, the steps 2 and 3 are performed with ADP-Glo™ Kinase Assay kit from Promega (V9101). Test compounds were prepared by 10-point serial dilution in dimethyl sulfoxide (DMSO) and 100 nL of each dilution was spotted onto a 384-well Optiplate (Perkin Elmer and Cat #6007299) by Labcyte Echo. 5 μL kinase reaction buffer (0.02% Brij-35, 2 mM DTT, 50 mM HEPES pH 7.5, MgCl2 10 mM, BSA 0.01% and β-glycerophosphate 12.5 mM) containing HPK1 (3.2 nM) enzyme was transferred to each well and incubated for 15 minutes at room temperature at 60% humidity. The enzymatic reaction was started by adding 5 μl of Start-Mix (10 μM ATP and 3.235 μM MBP). After 120 minutes, the reaction was stopped by adding 5 μL of ADP-Glo reagent (Promega, V9101) and incubating for 40 min. in the dark at 23° C. To determine the level of ADP, 10 μl ADP-Glo Detection solution was added and incubated for 1 hour at 23° C. in the dark. The plate was transferred to a Perkin Elmer EnVision (2104 Multilabel Reader) for luminescence detection and percent inhibition activity and IC50 value were determined using Genedata Screener.
Regarding `COCc1n[nH]c(-c2cc(C(N)=O)c3ncnc(N[C@H]4CCCNC4)c3n2)n1` [US20250320228, Example 13], the IC50 (in general, the midpoint of a concentration-inhibition curve) is above 1000 nM.

Turning to `N#C[C@H]1COCCN1Cc1ccc(-c2cc(C(N)=O)c3ncnc(N[C@H]4CCCNC4)c3n2)cc1` [US20250320228, Example 14], the IC50 is below 100 nM. `NC(=O)c1cc(-c2ccc(CN3CCOC[C@H]3C(F)(F)F)cc2)nc2c(N[C@H]3CCCNC3)ncnc12` [US20250320228, Example 15]: the IC50 is below 100 nM.

With `NC(=O)c1cc(-c2ccc(CN3CCOCC3)cc2)nc2c(NC34CNCC3C4)ncnc12` (stereo not given) [US20250320228, Example 20], the IC50 was below 100 nM. The same measure for `NC(=O)c1cc(-c2ccc(CN3CCOCC3)cc2)nc2c(N3CC[C@@H](F)[C@H](N)C3)ncnc12` [US20250320228, Example 22]: above 1000 nM; for `C[C@@H](N)CNc1ncnc2c(C(N)=O)cc(-c3ccc(CN4CCOCC4)cc3)nc12` [US20250320228, Example 25]: below 100 nM.

Compound `NC(=O)c1cc(-c2ccc(CN3CCOCC3)cc2)nc2c(N[C@@H]3CNC[C@H](F)C3)ncnc12` [US20250320228, Example 26] showed an IC50 below 100 nM. Compound `NC(=O)c1cc(-c2cc(F)c(OCC3(O)CCC3)c(F)c2)nc2c(N[C@H]3CCCNC3)ncnc12` [US20250320228, Example 39] gave an IC50 below 100 nM.

`CN1CCc2cc(-c3cc(C(N)=O)c4ncnc(N[C@H]5CCCNC5)c4n3)nn2CC1=O` [US20250320228, Example 45] had an IC50 below 100 nM.

In turn, `NC(=O)c1cc(-c2ccc(OC(F)(F)F)cc2)nc2c(N[C@@H]3CNC[C@H](F)C3)ncnc12` [US20250320228, Example 71] registered an IC50 below 100 nM.
